Earlier results on 1 molecule are cited in patent US12233082B2, “Compositions and methods for multi-use suppression and acquisition of viruses” (priority 2021, dated 2025).

For one data set, the system named is HSV. The conditions noted are these: 500 mg valacyclovir; expected for group 2 from previous research.
In a further data set the test system is HIV-1. The conditions noted are these: 500 mg valacyclovir twice daily, 12 weeks, vs placebo.

For the molecule `CC(C)[C@H](N)C(=O)OCCOCn1cnc2c(=O)[nH]c(N)nc21` [valacyclovir], the “percentage of source partners with HSV-2 shedding in the genital tract (FIG. 1)” value with HSV-2 (500 mg valacyclovir daily, N=39 vs placebo N=50, PCR detectable shedding) is “decreased at a much quicker rate than those taking the placebo”. Moreover, the “risk of transmission of HSV-2” value in the data set with HSV-2 (500 mg valacyclovir once daily, 8 months, source partners vs placebo) was “reduced the risk of transmission of HSV-2”. In addition, the “HSV PCR detectability rate median” value in the data set with HSV was 5% of days. For the same molecule, in the data set on HIV-1, the “reduction of HIV-1 viral load in plasma, on average” value is given as 0.37 log10 copies/mL.
